pEC50: −log10 of the molar value. Where only a bound is given, the exact number is not on record here.

Tested on in one data set: not listed separately
Kind of data set: plasma calcium determination in athymic nude mice. To be noted: four doses, oral gavage every other day for 14 days, Day 14; FIG. 1. It counts as in vivo. How it is done:
A (three day) effective dose study was conducted on normal BALB/c mice in order to select a compound for the athymic nude mice study described below. Two-week old male Balb/c mice (Harlan) were weighed and sorted into groups of six according to Day-1 weight. Animals were given a standard diet and housed under normal lighting conditions. Compounds were administered in sesame oil vehicle with 4% ethanol. Ethanol was removed by evaporation by sparging with nitrogen prior to dosing orally by gavage via a 1 cc syringe with a 20 G disposable feeding needle (0.1 mL dose volume). Dosing was daily for three days, with animal weights measured on Days 0, 1 and 3. […] Animal weights were monitored on Day 3, 7, 10 and 14. […]
Calcium determination was carried out in a micronized plate format with heparinized plasma samples utilizing a colorimetric assay (Sigma 588-3). […] When present in an acidic medium, the calcium Arsenazo complex forms a purple color that was determined using a standard plate reader at […] against a standard curve.
FIG. 1 compares the effect of 1α,25-dihydroxyvitamin D3, against four different doses of one selected compound of the current invention, Compound B on plasma calcium levels in athymic nude mice at Day 14 measured 3 hours after final dose. Dosage is measured in μg/kg and plasma calcium levels are in mg/dl. […]
With `CCC(CC)(c1ccc(C#CC(O)C(C)(C)C)c(C)c1)c1ccc(OC[C@@H](O)CO)c(C)c1` (single isomer, unassigned) [compound B], the plasma calcium concentration entry was “without elevating plasma calcium concentration”.

In the next data set the test system is 24-hydroxylase. Kind of data set: kidney 24-hydroxylase gene expression in athymic nude mice (RT-PCR). Format: in vivo. Conditions: four doses, oral gavage every other day for 14 days; FIG. 2. How it is done: A (three day) effective dose study was conducted on normal BALB/c mice in order to select a compound for the athymic nude mice study described below. Two-week old male Balb/c mice (Harlan) were weighed and sorted into groups of six according to Day-1 weight. Animals were given a standard diet and housed under normal lighting conditions. Compounds were administered in sesame oil vehicle with 4% ethanol. Ethanol was removed by evaporation by sparging with nitrogen prior to dosing orally by gavage via a 1 cc syringe with a 20 G disposable feeding needle (0.1 mL dose volume). Dosing was daily for three days, with animal weights measured on Days 0, 1 and 3. […] Animal weights were monitored on Day 3, 7, 10 and 14. […] The RT reactions were performed in a DNA Engine thermal cycler (PTC-200, MJ Research) (50° C. 30 minutes; 72° C. 5 minutes) Real-Time Quantitative PCR was performed in a 384 well assay plate using the Prism 7900HT (ABI) using the entire product from the reverse transcription reaction above (5 uL). […] Results were analyzed using the data analysis and software packet (SDS) provided with the instrumentation. FIG. 1 compares the effect of 1α,25-dihydroxyvitamin D3, against four different doses of one selected compound of the current invention, Compound B on plasma calcium levels in athymic nude mice at Day 14 measured 3 hours after final dose. […]
Consider `CCC(CC)(c1ccc(C#CC(O)C(C)(C)C)c(C)c1)c1ccc(OC[C@@H](O)CO)c(C)c1` (single isomer, unassigned) [compound B], for which the “RNA expression of kidney 24-hydroxylase (relative to cyclophilin)” value is on record as “dose responsive increase”.

For a further data set, the target named is T1, VDR (Homo sapiens, UniProt P11473).
T1 construct: expressed in transfected cells; host or cells: CV-1 (African green monkey kidney cells), transient transfection
T1 sequence (P11473 92-425): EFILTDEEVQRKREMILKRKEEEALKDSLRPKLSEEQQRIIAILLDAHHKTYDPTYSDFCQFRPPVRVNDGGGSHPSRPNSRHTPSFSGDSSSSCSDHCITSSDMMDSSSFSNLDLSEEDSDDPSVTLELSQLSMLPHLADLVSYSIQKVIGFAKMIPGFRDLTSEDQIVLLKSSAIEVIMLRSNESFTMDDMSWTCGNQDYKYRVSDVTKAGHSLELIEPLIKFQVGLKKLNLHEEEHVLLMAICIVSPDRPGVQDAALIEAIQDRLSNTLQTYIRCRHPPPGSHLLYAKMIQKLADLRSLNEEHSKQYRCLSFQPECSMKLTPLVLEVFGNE
T1 sequence (Q15788 381-891 partner limits assumed): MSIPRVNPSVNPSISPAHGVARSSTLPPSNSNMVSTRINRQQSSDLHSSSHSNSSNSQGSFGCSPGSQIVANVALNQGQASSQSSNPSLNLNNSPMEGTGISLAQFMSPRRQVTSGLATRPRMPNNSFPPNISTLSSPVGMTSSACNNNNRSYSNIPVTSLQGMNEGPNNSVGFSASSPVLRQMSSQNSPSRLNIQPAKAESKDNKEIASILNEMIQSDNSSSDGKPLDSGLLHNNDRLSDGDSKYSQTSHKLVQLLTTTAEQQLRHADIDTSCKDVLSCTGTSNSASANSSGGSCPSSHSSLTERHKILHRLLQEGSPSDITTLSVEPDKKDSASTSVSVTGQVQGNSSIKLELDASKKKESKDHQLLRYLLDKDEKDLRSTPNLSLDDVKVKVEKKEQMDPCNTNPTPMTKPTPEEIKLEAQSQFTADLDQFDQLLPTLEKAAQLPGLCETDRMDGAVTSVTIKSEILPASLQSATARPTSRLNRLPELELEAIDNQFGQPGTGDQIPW
In words: modified mammalian two-hybrid assay (VDR / SRC-1 interaction, luciferase reporter). Format: cell-based. Conditions: CV-1 cells, exemplary compounds, read-out: agonist activity EC50. How it is done: Compound activity was determined using a modified mammalian two-hybrid assay, using the interaction of VDR to the co-factor SRC-1 to monitor receptor activation.
Following incubation with transfection reagents for 5 hours at 37° C., transfected cells were trypsinized, centrifuged, resuspended in media and added to the assay plates, (45 μl, 5000 cells per well). The assay plates containing both compounds and screening cells were incubated for approximately 20 hours at 37° C. in a tissue culture incubator.
After incubation of the transfected cells with compounds, media was aspirated and lysis buffer (1% Triton X 100, 10% Glycerol, 5 mM Dithiothreitol,1 mM EGTA, 25 mM Tricine pH 7.8) added.
(Reporter assays use an easily measured gene product as a stand-in for the process of interest.)
What is called pEC50 is the EC50 on a negative log10 scale, so that one unit is a factor of ten. For the compound `CCC(O)(CC)CCc1ccc(C(CC)(CC)c2ccc(OC[C@@H](O)CO)c(C)c2)cc1C` [3-(4-{1-ethyl-1-[4-(3-ethyl-3-hydroxypentyl)-3-methylphenyl]-propyl}-2-methyl-phenoxy)-propane-1,2(S)-diol], the pEC50 was over 5.00. As to `CCC(CC)(c1ccc(CCC(O)C(C)(C)C)cc1)c1ccc(OC[C@@H](O)CO)c(C)c1` (stereo partly drawn) [3-(4-{1-Ethyl-1-[4-(3-hydroxy-4,4-dimethylpentyl)-phenyl]-propyl}-2-methylphenoxy)-propane-1,2(S)-diol], the pEC50 was over 5.00. Same read-out and setting: under `Cc1cc(C(c2ccccc2)(c2ccc(OCC(O)C(C)(C)C)c(C)c2)C(F)(F)C(F)(F)F)ccc1OCC(O)CO` (stereo not drawn) [3-(2-Methyl-4-{2,2,3,3,3-pentafluoro-1-[4-(2-hydroxy-3,3-dimethyl-butoxy)-3-methyl-phenyl]-1-phenyl-propyl}-phenoxy)-propane-1,2-diol] stands over 5.00. Same read-out and setting: for `CCC(CC)(c1ccc(CCC(C)(C)O)c(C)c1)c1ccc(OC[C@@H](O)CO)c(C)c1` [3-(4-{1-ethyl-1-[4-(3-hydroxy-3-methylbutyl)-3-methylphenyl]-propyl}-2-methylphenoxy)-propane 1,2(S)-diol] the value was over 5.00. The same measure, in the same setting: under `Cc1cc(C(c2ccccc2)(c2ccc(OCC(O)C(C)(C)C)c(C)c2)C(F)(F)F)ccc1OCC(O)CO` (stereo not drawn) [3-(2-Methyl-4-{2,2,2-trifluoro-1-[4-(2-hydroxy-3,3-dimethyl-butoxy)-3-methyl-phenyl]-1-phenyl-ethyl}-phenoxy)-propane-1,2-diol] stands over 5.00; under `CC(=O)N1CCC(c2ccc(OCC(=O)C(C)(C)C)c(C)c2)(c2ccc(OCC(=O)C(C)(C)C)c(C)c2)CC1` [1-(4-{1-Acetyl-4-[4-(3,3-dimethyl-2-oxo-butoxy)-3-methyl-phenyl]-piperidin-4-yl}-2-methyl-phenoxy)-3,3-dimethyl-butan-2-one], over 5.00. Regarding `CCC(CC)(c1ccc(/C=C\C(O)C(C)(C)C)c(C)c1)c1ccc(OC[C@@H](O)CO)c(C)c1` (stereo partly drawn) [(Z)-3-(4-{1-ethyl-1-[4-(3-hydroxy-4,4-dimethylpent-1-enyl)-3-methylphenyl]-propyl}-2-methylphenoxy)-propane-1,2(S)-diol], the negative logarithm of the EC50 (pEC50) was over 5.00.

The values are drawn from US7863298B2, “Bridged ring structures as pharmaceutical agents” (Exelixis, Inc., priority 2003, dated 2011).
